Entries after “also recorded” stand apart in the source; their conditions may differ. Where two headings read alike, the source gives them in different places. Blank lines part the entries; values can stand above or below the molecule they belong to.
Experiments:
[1] = system: SHH signaling activity in SHH-organoids; test: Drug treatment of SHH-organoids, positional domains analysed at day 20; assay type: cell-based, human; conditions: day 20 SHH-organoids
Procedure: Day 20 organoids were fixed in 4% PFA overnight at 4° C. and washed three times with PBS the next day. […] Sections were blocked for 30 minutes in 10% FBS, 1% BSA, 0.3% triton in PBS, and incubated as floating section in primary antibody overnight. The next day, sections were washed with PBS and incubated as floating section in secondary antibody for 3 hours at room temperature. Day 6 organoids were fixed in 4% PFA for 2 hours at 4° C. and washed three times with PBS. After fixation, tissue was cryoprotected in 30% sucrose/PBS and sectioned at […] and mounted directly onto slides prior to immunofluorescence assays.
Organoid topography was quantified by first dividing each image into a grid of […] squares (day 20 analysis) or […] squares (day 6 analysis) that form a Cartesian coordinate grid. Each square is a discrete region of interest (ROI) that is associated with an X and Y coordinate. The origin of the grid was calculated for each image as the “center of mass” of the iSHH-organizer cells: CMx=S mixi/M and CMy=S miyi/M, where m=grey value intensity of iSHH cells for individual ROIs, x or y=coordinate, and M=total intensity for all ROIs, and the sum includes all x or y coordinates in the image. Next, ROI's that were positive for expression of a given protein (e.g. PAX6) were defined by thresholding staining intensity and determining ROIs with positive immunoreactivity. The linear distance from the origin to each ROI (sqrt((ROIx-CM^x)^2+(ROIy-CMy)^2)) was calculated. The present study analyzed every sixth section for each regional marker per organoid (typically 2-5 sections/organoid, depending on organoid size), thus sampling the organoids in 150 μm intervals using uniform random sampling.

[2] = system: SHH-organoids; test: Drug treatment of SHH-organoids, organoid and organizer size at day 20
[3] = system: SHH signaling activity in SHH-organoids; test: Drug treatment of SHH-organoids, NKX2.2 induction at day 6; assay type: cell-based, human; conditions: day 6 organoids
Procedure: Day 20 organoids were fixed in 4% PFA overnight at 4° C. and washed three times with PBS the next day. After fixation, tissue was cryoprotected in 30% sucrose/PBS and sectioned at […] on a cryostat (Leica 3050 S). Sections were blocked for 30 minutes in 10% FBS, 1% BSA, 0.3% triton in PBS, and incubated as floating section in primary antibody overnight. The next day, sections were washed with PBS and incubated as floating section in secondary antibody for 3 hours at room temperature. Day 6 organoids were fixed in 4% PFA for 2 hours at 4° C. and washed three times with PBS. After fixation, tissue was cryoprotected in 30% sucrose/PBS and sectioned at […] and mounted directly onto slides prior to immunofluorescence assays.
Organoid topography was quantified by first dividing each image into a grid of […] squares (day 20 analysis) or […] squares (day 6 analysis) that form a Cartesian coordinate grid. […] The origin of the grid was calculated for each image as the “center of mass” of the iSHH-organizer cells: CMx=S mixi/M and CMy=S miyi/M, where m=grey value intensity of iSHH cells for individual ROIs, x or y=coordinate, and M=total intensity for all ROIs, and the sum includes all x or y coordinates in the image. […] The linear distance from the origin to each ROI (sqrt((ROIx-CM^x)^2+(ROIy-CMy)^2)) was calculated. […]

[4] = system: SHH signaling in SHH organizer-containing organoids; test: Example 6.2: SHH organizer-containing organoids treated with cholesterol inhibitors (FIGS. 15-16); assay type: cell-based, human; conditions: for SHH signaling (PAX6+ extent of organoid): FIG. 15; for long-range and short-range SHH signaling: FIG. 16
Procedure: To evaluate the effect of statins on fetal development, in certain embodiments SHH organizer-containing organoids are treated with statins.
FIG. 16 summarizes the effects of cholesterol inhibition on SHH organizer-containing organoids.

[5] = system: SHH-organoids
[6] = system: SW480 cells; conditions: cited from earlier work
[7] = doxycycline 400 ng/ml, lovastatin 5 μM, AY9944 1.25 μM
[8] = lovastatin 5 μM, AY9944 1.25 μM, cyclopamine 1 μM

overall organoid size / growth ([2]; drug day 0-10): impaired growth
Structure (SMILES): CC[C@H](C)C(=O)O[C@H]1C[C@@H](C)C=C2C=C[C@H](C)[C@H](CC[C@@H]3C[C@@H](O)CC(=O)O3)[C@H]21 [Lovastatin]
GSH2 expression domain ([1]; doxycycline 400 ng/ml, lovastatin 5 μM): concomitant increase in GSH2 expression; also recorded: increase in the relative area of the GSH2 expression domain
NKX2.2 induction [1, 7]: partial block in NKX2.2 induction; also recorded: moderate reduction in NKX2.2 induction
NKX2.1 expression in or near the organizer [1, 8]: retained diencephalic NKX2.1 expression; also recorded: retain NKX2.1 and OTX2 expression within the organizer
size of the organizer [2]: did not reduce the size of the organizer itself
distance at which NKX2.2 is induced from the organizer ([3]; lovastatin 2, 5, 20 μM): reduced the distance at which NKX2.2 is induced from the organizer in a dose-dependent manner; also recorded: dose-dependent reduction

overall organoid size / growth [5]: impaired growth
Structure (SMILES): Clc1ccccc1CNCC1CCC(CNCc2ccccc2Cl)CC1 (centres unmarked) [AY9944]
SHH signaling (PAX6+ extent of organoid) [4]: largely blocked SHH signaling
long-range and short-range SHH signaling [4]: block long-range SHH signaling, but not short range signaling
SHH signaling activity (efficacy and range) ([1]; doxycycline 400 ng/ml, drug day 0-10, lovastatin 5 μM, AY9944 1.25 μM, cyclopamine 1 μM): reduced the efficacy and range of SHH signaling activity; also recorded: strong reduction the range of SHH-signaling activity
NKX2.2 induction [1, 7]: largely blocked; also recorded: fail to induce NKX2.2
NKX2.1 expression in or near the organizer [1, 8]: retained diencephalic NKX2.1 expression; also recorded: only retain NKX2.1 expression in the immediate vicinity of the organizer; also recorded: retain NKX2.1 and OTX2 expression within the organizer
size of the organizer [5]: did not reduce the size of the organizer itself
NKX2.2 induction ([3]; all concentrations tested): strongly inhibited NKX2.2 induction at all concentrations tested; also recorded: strongly inhibits induction of NKX2.2

Structure (SMILES): Oc1nc(-c2ccc(C(F)(F)F)cc2)nc2c1CSCC2 [XAV939]
degradation of β-catenin [6]: promotes the degradation of β-catenin
protein levels of the axin-GSK3β complex [6]: increases the protein levels of the axin-GSK3β complex

Structure (SMILES): CC1=C2C[C@H]3[C@@H](CC=C4C[C@@H](O)CC[C@@]43C)[C@@H]2CC[C@]12O[C@@H]1C[C@H](C)CN[C@H]1[C@H]2C [cyclopamine]
SHH signaling (PAX6+ extent of organoid) [4]: no SHH signaling
long-range and short-range SHH signaling [4]: block all SHH signaling
PAX6 expression ([1]; doxycycline 400 ng/ml, cyclopamine 1 μM): nearly uniform for PAX6 expression; also recorded: largely express PAX6
NKX2.1 expression in or near the organizer [1, 8]: not
